Legend:
[1] = biological target: PKMYT1 (MYT1) (Homo sapiens (Human), UniProt Q99640); assay: PKMYT1 HTRF Assay; assay type: binding; settings: Tracer 178, GST-Tb; compound 10 μM to 0.5 nM
Experimental: Example A: PKMYT1 HTRF Assay
(§1) Compound serial dilution is performed by Echo, and the final concentrations vary from 10 μM to 0.5 nM. This was filled by the addition of 5 μL/well of Enzyme solution to the assay plate containing the compound. The plate was centrifuged at 1000 rpm for 1 minute, and incubate 15 minutes at 25° C. Then 5 μL/well of tracer solution (Tracer 178) was added to initiate the reaction, and incubate for 60 minutes at 25° C. Next 5 μL GST-Tb was added into the assay plate, the plate was centrifuged at 1000 rpm for 1 minute, and incubate for 15 minutes at 25° C. The assay plate was read on Envision.

[2] = biological target: WEE1 (Homo sapiens (Human), UniProt P30291); assay: WEE1 ADP-Glo Assay; assay type: biochemical; settings: compound 10 μM to 0.5 nM
Experimental: Example B: WEE1 ADP-Glo Assay
as §1, with “of substrate” for “of tracer”, “solution” for “solution (Tracer 178)”, “Next 10” for “Next 5”, “μL kinase detection reagent” for “μL GST-Tb”, “for 60” for “for 15”, “on Envision for US LUM as RLU.” for “on Envision.”

Sequence of PKMYT1 (MYT1) (Q99640 whole entry): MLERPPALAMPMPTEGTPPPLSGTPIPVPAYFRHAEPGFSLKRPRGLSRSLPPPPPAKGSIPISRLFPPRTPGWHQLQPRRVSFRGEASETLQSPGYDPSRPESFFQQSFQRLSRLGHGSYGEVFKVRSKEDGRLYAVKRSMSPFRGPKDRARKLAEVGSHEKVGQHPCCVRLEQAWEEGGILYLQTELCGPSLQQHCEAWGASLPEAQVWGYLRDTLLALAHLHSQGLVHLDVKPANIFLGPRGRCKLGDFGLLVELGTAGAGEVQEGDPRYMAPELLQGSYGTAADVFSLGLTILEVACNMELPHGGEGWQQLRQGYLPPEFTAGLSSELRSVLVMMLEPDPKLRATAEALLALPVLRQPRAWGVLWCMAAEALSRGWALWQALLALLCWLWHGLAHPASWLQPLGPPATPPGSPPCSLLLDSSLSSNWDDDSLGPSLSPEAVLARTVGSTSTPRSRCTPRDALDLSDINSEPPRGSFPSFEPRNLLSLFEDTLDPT
Sequence of WEE1 (P30291 whole entry): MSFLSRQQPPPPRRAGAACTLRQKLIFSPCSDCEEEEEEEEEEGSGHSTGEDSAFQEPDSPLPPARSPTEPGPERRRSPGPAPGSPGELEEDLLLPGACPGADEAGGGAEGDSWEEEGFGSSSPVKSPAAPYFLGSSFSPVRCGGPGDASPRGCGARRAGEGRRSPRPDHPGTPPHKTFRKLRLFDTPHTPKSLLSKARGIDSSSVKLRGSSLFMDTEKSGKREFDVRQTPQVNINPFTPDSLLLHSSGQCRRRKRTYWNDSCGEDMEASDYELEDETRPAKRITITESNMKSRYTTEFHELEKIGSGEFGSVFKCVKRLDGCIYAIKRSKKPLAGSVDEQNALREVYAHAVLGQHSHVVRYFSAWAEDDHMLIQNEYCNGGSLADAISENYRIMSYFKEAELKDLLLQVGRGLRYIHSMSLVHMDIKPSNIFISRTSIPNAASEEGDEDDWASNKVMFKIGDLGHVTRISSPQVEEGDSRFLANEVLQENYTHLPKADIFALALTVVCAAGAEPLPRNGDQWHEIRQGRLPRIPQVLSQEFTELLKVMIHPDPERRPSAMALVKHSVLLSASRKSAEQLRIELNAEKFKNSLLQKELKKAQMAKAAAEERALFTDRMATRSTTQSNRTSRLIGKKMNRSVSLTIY

How did the IC50 [1] turn out when Cc1ccc(O)c(C)c1-n1c(N)c2c3c(c(C)cnc31)CCNC2=O [Example 1, 1-amino-2-(3-hydroxy-2,6-dimethylphenyl)-5-methyl-2,6,7,8-tetrahydro-9H-2,3,8-triazabenzo[cd]azulen-9-one] was run?
The IC50 was less than 10 nM.

What about the IC50 [2] of the same molecule?
The IC50 was 1210 nM.

Which IC50 [1] does the source give for Cc1ccc(O)c(C)c1-n1c(N)c2c3c(c(C)ncc31)CCNC2=O [Example 2, 1-amino-2-(3-hydroxy-2,6-dimethylphenyl)-5-methyl-2,6,7,8-tetrahydro-9H-2,4,8-triazabenzo[cd]azulen-9-one] here?
The IC50 was 10 to 50 nM.

What about the IC50 [2] of the same molecule?
Its IC50 is greater than 10000 nM.

Which IC50 [1] does the source give for Cc1nc2c3c(c(N)n(-c4c(C)ccc(O)c4C)c3n1)C(=O)NCC2 [Example 3, 1-amino-2-(3-hydroxy-2,6-dimethylphenyl)-4-methyl-2,6,7,8-tetrahydro-9H-2,3,5,8-tetraazabenzo[cd]azulen-9-one] here?
Its IC50 is less than 10 nM.

Source: patent US20250145624A1, “MEMBRANE-ASSOCIATED TYROSINE- AND THREONINE-SPECIFIC CDC2-INHIBITORY KINASE (PKMYT1) INHIBITORS AND USES THEREOF” (Insilico Medicine IP Limited, priority 2022, published 2025)
